Experiments:
Assay type in all cases: biochemical
[1] = molecular target: T1, ITK (Homo sapiens, UniProt Q08881); assay: ITK IC50 kinase inhibition assay
T1 sequence (Q08881 1-620): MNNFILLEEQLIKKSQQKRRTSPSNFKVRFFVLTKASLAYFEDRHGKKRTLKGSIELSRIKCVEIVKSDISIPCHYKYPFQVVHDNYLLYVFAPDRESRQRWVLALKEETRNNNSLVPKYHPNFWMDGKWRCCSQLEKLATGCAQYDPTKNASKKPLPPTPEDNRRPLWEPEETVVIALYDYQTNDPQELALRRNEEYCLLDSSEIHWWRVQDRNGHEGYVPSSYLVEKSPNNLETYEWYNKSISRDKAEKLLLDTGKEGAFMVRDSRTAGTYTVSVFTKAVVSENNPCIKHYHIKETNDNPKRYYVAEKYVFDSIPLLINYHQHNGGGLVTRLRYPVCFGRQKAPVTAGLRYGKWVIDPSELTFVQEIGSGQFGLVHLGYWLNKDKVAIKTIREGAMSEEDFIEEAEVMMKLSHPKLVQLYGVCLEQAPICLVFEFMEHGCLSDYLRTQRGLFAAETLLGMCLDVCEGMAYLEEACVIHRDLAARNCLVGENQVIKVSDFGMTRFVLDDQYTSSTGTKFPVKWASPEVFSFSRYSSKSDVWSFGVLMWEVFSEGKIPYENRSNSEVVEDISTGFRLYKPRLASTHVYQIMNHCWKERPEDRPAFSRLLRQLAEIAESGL

[2] = molecular target: BTK (Homo sapiens, UniProt Q06187); assay: BTK IC50 kinase inhibition assay
[3] = molecular target: T2, JAK3 (Homo sapiens, UniProt P52333); assay: JAK3 IC50 kinase inhibition assay
T2 sequence (P52333 1-1124): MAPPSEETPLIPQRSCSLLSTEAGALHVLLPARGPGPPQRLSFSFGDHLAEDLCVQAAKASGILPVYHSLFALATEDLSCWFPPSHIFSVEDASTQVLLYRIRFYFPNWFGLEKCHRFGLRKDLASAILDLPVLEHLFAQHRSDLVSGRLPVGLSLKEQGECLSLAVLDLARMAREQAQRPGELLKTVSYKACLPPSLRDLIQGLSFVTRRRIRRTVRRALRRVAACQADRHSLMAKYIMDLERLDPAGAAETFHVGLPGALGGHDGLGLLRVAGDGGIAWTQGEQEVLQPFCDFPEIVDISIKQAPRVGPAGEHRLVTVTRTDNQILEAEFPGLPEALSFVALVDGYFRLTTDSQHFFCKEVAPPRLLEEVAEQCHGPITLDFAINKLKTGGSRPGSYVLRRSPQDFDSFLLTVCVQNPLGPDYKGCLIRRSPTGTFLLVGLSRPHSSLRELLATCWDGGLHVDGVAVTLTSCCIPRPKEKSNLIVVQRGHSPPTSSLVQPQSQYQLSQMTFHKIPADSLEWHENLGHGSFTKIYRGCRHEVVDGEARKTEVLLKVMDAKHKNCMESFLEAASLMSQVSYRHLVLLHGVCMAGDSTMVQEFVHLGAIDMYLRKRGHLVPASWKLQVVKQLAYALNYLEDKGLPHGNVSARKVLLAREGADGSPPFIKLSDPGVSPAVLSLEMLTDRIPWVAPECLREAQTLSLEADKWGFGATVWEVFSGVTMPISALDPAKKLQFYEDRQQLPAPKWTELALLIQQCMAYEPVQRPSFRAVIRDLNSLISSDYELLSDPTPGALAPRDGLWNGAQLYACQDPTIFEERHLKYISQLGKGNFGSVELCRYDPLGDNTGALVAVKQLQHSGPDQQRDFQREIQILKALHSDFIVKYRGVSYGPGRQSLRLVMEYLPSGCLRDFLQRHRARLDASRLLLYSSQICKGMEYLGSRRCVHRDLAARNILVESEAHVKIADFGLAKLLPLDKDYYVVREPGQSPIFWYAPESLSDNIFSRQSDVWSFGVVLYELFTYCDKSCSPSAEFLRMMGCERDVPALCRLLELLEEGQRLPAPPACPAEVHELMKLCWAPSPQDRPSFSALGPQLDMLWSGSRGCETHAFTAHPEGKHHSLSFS

[4] = molecular target: T3, TXK (Homo sapiens, UniProt P42681); assay: TXK IC50 kinase inhibition assay
T3 sequence (P42681 1-527): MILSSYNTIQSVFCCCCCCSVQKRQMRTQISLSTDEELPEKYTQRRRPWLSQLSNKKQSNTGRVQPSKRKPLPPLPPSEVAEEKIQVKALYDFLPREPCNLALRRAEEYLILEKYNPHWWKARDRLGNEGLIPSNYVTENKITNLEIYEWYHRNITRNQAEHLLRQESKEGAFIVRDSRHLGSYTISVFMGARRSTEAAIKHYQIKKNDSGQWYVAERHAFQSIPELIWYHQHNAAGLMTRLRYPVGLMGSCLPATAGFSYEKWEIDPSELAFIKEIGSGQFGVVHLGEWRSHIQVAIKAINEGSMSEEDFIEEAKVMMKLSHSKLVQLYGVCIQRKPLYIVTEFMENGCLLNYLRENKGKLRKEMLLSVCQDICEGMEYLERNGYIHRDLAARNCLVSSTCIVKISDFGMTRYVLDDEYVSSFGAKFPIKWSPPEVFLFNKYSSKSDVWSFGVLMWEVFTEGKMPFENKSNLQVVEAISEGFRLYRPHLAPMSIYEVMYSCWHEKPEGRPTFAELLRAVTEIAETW

BTK, sequence (Q06187 whole entry): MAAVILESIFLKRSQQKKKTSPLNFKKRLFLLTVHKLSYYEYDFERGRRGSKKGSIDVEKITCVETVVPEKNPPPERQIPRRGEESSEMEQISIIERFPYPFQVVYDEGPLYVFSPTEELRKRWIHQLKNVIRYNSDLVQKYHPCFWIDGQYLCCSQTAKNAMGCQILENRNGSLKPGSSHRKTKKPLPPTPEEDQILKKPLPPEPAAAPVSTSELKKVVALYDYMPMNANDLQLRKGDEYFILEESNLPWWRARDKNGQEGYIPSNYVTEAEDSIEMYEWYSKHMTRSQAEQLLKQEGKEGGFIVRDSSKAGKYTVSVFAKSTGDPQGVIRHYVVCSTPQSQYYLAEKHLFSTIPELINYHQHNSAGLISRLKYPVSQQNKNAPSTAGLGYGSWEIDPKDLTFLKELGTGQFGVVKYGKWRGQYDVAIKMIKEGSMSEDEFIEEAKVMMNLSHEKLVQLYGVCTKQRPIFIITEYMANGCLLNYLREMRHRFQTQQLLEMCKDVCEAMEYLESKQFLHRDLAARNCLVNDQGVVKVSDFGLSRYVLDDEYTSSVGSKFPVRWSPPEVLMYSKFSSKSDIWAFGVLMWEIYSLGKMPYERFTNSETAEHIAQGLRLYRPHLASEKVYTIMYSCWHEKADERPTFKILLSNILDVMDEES

Row | Structure (SMILES) | IC50 [1] [nM] | IC50 [2] [nM] | IC50 [3] [nM] | IC50 [4] [nM]
1 | C=CC(=O)N1CCC[C@H]1Cn1nc(-c2ccc(Oc3cccc(CC)c3)cc2)c2cncnc21 [Compound A46, (S)-1-(2-((3-(4-(3-ethylphenoxy)phenyl)-1H-pyrazolo[3,4-d]pyrimidin-1-yl)methyl)pyrrolidin-1-yl)prop-2-en-1-one] | > 500 | < 100 | > 500 | < 100
2 | C=CC(=O)N1CCC[C@H]1Cn1nc(-c2ccc(Oc3cccc(C(F)F)c3)cc2)c2cncnc21 [Compound A47, (S)-1-(2-((3-(4-(3-(difluoromethyl)phenoxy)phenyl)-1H-pyrazolo[3,4-d]pyrimidin-1-yl)methyl)pyrrolidin-1-yl)prop-2-en-1-one] | > 500 | < 100 | > 500 | < 100
3 | C=CC(=O)N1CCC[C@H]1Cn1nc(-c2ccc(Oc3cccc(C)c3)cc2)c2cncnc21 [Compound A48, (S)-1-(2-((3-(4-(m-tolyloxy)phenyl)-1H-pyrazolo[3,4-d]pyrimidin-1-yl)methyl)pyrrolidin-1-yl)prop-2-en-1-one] | > 500 | < 100 | > 500 | < 100
4 | C=CC(=O)N1CC(C)(C)C[C@H]1Cn1nc(-c2ccc(Oc3ccccc3)cc2)c2cncnc21 [Compound A49, (S)-1-(4,4-dimethyl-2-((3-(4-phenoxyphenyl)-1H-pyrazolo[3,4-d]pyrimidin-1-yl)methyl)pyrrolidin-1-yl)prop-2-en-1-one] | > 500 | < 100 | > 500 | < 100
5 | C=CC(=O)N1CCC[C@@H](n2nc(-c3ccc(Oc4c(F)cccc4F)cc3)c3cncnc32)C1 [Compound A50, (R)-1-(3-(3-(4-(2,6-difluorophenoxy)phenyl)-1H-pyrazolo[3,4-d]pyrimidin-1-yl)piperidin-1-yl)prop-2-en-1-one] | > 500 | < 100 | > 500 | 100 to 500
6 | C=CC(=O)N1CC[C@H]1Cn1nc(-c2ccc(Oc3ccccc3)cc2)c2cncnc21 [Compound A51, (S)-1-(2-((3-(4-phenoxyphenyl)-1H-pyrazolo[3,4-d]pyrimidin-1-yl)methyl)azetidin-1-yl)prop-2-en-1-one] | > 500 | < 100 | > 500 | < 100
7 | C=CC(=O)N1CCC[C@@]1(C)Cn1nc(-c2ccc(Oc3ccccc3)cc2F)c2cncnc21 [Compound A52, (S)-1-(2-((3-(2-fluoro-4-phenoxyphenyl)-1H-pyrazolo[3,4-d]pyrimidin-1-yl)methyl)-2-methylpyrrolidin-1-yl)prop-2-en-1-one] | > 500 | < 100 | > 500 | < 100
8 | C=CC(=O)N1CC[C@@H]1Cn1nc(-c2ccc(Oc3ccccc3)cc2)c2cncnc21 [Compound A53, (R)-1-(2-((3-(4-phenoxyphenyl)-1H-pyrazolo[3,4-d]pyrimidin-1-yl)methyl)azetidin-1-yl)prop-2-en-1-one] | > 500 | < 100 | > 500 | < 100
9 | C=CC(=O)N1CCC2(CC1)CC(n1nc(-c3ccc(Oc4ccccc4)cc3)c3cncnc31)C2 [Compound A54, 1-(2-(3-(4-phenoxyphenyl)-1H-pyrazolo[3,4-d]pyrimidin-1-yl)-7-azaspiro[3.5]nonan-7-yl)prop-2-en-1-one] | > 500 | > 500 | > 500 | > 500
10 | C=CC(=O)N[C@H]1C[C@H](n2nc(-c3ccc(Oc4ccccc4)cc3)c3cncnc32)C1 [Compound A55, N-((1r,3r)-3-(3-(4-phenoxyphenyl)-1H-pyrazolo[3,4-d]pyrimidin-1-yl)cyclobutyl)acrylamide] | > 500 | 100 to 500 | > 500 | > 500
11 | C=CC(=O)N[C@H]1CC[C@H](n2nc(-c3ccc(Oc4ccccc4)cc3)c3cncnc32)CC1 [Compound A56, N-((1r,4r)-4-(3-(4-phenoxyphenyl)-1H-pyrazolo[3,4-d]pyrimidin-1-yl)cyclohexyl)acrylamide] | > 500 | > 500 | > 500 | > 500
12 | CC#CC(=O)N1CCC(Cn2nc(-c3ccc(Oc4ccccc4)cc3)c3cncnc32)CC1 [Compound A57, 1-(4-((3-(4-phenoxyphenyl)-1H-pyrazolo[3,4-d]pyrimidin-1-yl)methyl)piperidin-1-yl)but-2-yn-1-one] | > 500 | > 500 | > 500 | > 500

More lines, now with the values ahead:

Row | IC50 [1] [nM] | IC50 [2] [nM] | IC50 [3] [nM] | IC50 [4] [nM] | Structure (SMILES)
13 | > 500 | < 100 | > 500 | < 100 | C=CC(=O)N1CCC[C@@H](n2nc(-c3ccc(Oc4ccccc4F)cc3)c3cncnc32)C1 [Compound A40, (R)-1-(3-(3-(4-(2-fluorophenoxy)phenyl)-1H-pyrazolo[3,4-d]pyrimidin-1-yl)piperidin-1-yl)prop-2-en-1-one]
14 | > 500 | < 100 | > 500 | < 100 | C=CC(=O)N1CC(F)(F)C[C@H]1Cn1nc(-c2ccc(Oc3ccccc3)cc2)c2cncnc21 [Compound A41, (S)-1-(4,4-difluoro-2-((3-(4-phenoxyphenyl)-1H-pyrazolo[3,4-d]pyrimidin-1-yl)methyl)pyrrolidin-1-yl)prop-2-en-1-one]
15 | > 500 | 100 to 500 | > 500 | > 500 | C=CC(=O)NCCn1nc(-c2ccc(Oc3ccccc3)cc2)c2cncnc21 [Compound A42, N-(2-(3-(4-phenoxyphenyl)-1H-pyrazolo[3,4-d]pyrimidin-1-yl)ethyl)acrylamide]
16 | > 500 | < 100 | > 500 | 100 to 500 | C=CC(=O)N[C@@H](C)Cn1nc(-c2ccc(Oc3ccccc3)cc2)c2cncnc21 [Compound A43, (S)—N-(1-(3-(4-phenoxyphenyl)-1H-pyrazolo[3,4-d]pyrimidin-1-yl)propan-2-yl)acrylamide]
17 | > 500 | < 100 | > 500 | 100 to 500 | C=CC(=O)N1CCCC[C@H]1Cn1nc(-c2ccc(Oc3ccccc3)cc2)c2cncnc21 [Compound A44, (S)-1-(2-((3-(4-phenoxyphenyl)-1H-pyrazolo[3,4-d]pyrimidin-1-yl)methyl)piperidin-1-yl)prop-2-en-1-one]
18 | > 500 | < 100 | > 500 | < 100 | C=CC(=O)N1CCC[C@@]1(C)Cn1nc(-c2ccc(Oc3ccccc3)cc2)c2cncnc21 [Compound A45, (S)-1-(2-methyl-2-((3-(4-phenoxyphenyl)-1H-pyrazolo[3,4-d]pyrimidin-1-yl)methyl)pyrrolidin-1-yl)prop-2-en-1-one]

From patent US10870652B2, “Compounds and methods for modulating bruton's tyrosine kinase” (CORVUS PHARMACEUTICALS, INC., priority 2016, dated 2020)
